Measurements published in patent publication US9801856B2, “Composition of a 5-HT2A serotonin receptor modulator useful for the treatment of disorders related thereto” (Arena Pharmaceuticals, Inc., priority 2008, dated 2017).
“Also recorded” adds a separate entry of the source.

Key:
[1] = molecular target: T1, 5-HT2A serotonin receptor (Homo sapiens, UniProt P28223); conditions: cited from earlier work
[2] = system: 5-HT2 receptor; conditions: glaucoma patients; cited from earlier work
[3] = system: JC virus; conditions: cited from earlier work
[4] = molecular target: T2, 5-HT2A (Rattus norvegicus, UniProt P14842); conditions: in vivo; cited from earlier work
T2 sequence (P14842 whole entry): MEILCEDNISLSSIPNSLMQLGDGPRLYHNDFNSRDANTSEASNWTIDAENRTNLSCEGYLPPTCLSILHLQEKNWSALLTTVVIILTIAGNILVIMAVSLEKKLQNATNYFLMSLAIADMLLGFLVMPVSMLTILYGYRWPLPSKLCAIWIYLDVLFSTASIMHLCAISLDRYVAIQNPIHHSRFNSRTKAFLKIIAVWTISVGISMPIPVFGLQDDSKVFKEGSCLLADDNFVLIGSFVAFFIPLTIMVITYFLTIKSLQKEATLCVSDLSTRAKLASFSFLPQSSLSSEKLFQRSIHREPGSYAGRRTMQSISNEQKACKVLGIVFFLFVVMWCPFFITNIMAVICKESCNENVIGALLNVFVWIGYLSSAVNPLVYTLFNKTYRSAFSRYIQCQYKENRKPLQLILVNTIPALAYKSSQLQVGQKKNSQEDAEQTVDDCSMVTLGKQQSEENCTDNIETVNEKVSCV

[5] = molecular target: T2, 5-HT2A; design: host or cells: diabetic rats, in vivo; conditions: spontaneously hypertensive rats; cited from earlier work
[6] = Aqueous solubility of APD125; type: physicochemical
[7] = Stability of APD125 in solution; type: physicochemical; conditions: in solution at 25° C.
[8] = molecular target: T1, 5-HT2A serotonin receptor; assay: 5-HT2A serotonin receptor inverse agonist activity; type: biochemical
[9] = molecular target: T1, 5-HT2A serotonin receptor; assay: Phase 1 trials: waking EEG; type: in vivo, humans
[10] = molecular target: T1, 5-HT2A serotonin receptor; assay: Afternoon nap model of insomnia in normal volunteers; type: in vivo, humans
[11] = molecular target: T1, 5-HT2A serotonin receptor; assay: Phase 2 trial: sleep maintenance versus placebo; type: in vivo, humans
[12] = molecular target: T3, 5-HT2A (Homo sapiens, UniProt P28223); design: host or cells: patients, in vivo; conditions: 24 months of treatment; cited from earlier work
T3 sequence (P28223 whole entry): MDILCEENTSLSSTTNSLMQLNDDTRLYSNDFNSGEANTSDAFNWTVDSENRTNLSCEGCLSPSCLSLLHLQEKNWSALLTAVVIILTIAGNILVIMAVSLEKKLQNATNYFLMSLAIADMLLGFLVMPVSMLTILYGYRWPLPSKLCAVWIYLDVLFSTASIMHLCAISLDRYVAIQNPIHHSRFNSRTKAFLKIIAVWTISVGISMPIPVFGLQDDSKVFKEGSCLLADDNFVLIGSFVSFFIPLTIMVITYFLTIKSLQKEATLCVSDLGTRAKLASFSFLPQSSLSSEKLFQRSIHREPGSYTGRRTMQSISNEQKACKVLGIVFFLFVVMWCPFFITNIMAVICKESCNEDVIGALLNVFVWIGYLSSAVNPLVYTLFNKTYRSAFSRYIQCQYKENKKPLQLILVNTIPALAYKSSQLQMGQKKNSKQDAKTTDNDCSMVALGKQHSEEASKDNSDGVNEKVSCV

[13] = molecular target: T2, 5-HT2A; design: host or cells: diabetic rats, in vivo; conditions: rats, cited from earlier work
[14] = molecular target: T3, 5-HT2A; design: host or cells: human patients, in vivo; conditions: humans, lumbar disc herniation; cited from earlier work
[15] = Effect of milling and compression upon APD125 Form I (PXRD); type: physicochemical
Description: Micronized APD125 Form I, was ground using a mortar and pestle, with samples withdrawn at 1-min, 5-min and 10-min time points for PXRD analyses to evaluate the impact of grinding upon the solid-state form of APD125 Form I. PXRD patterns were obtained pre- and post-milling. Additionally, micronized APD125 Form I, was compressed at 2 kp, 5 kp and 10 kp for 1 min per sample using a Carver press. The samples were then removed from the Carver press and lightly broken up using a mortar and pestle, prior to PXRD analysis to evaluate the impact of compression upon the solid-state form of APD125 Form I. PXRD patterns were obtained pre- and post-compression.
(§1) PXRD measurements were obtained using a Philips (PANalytical) X'Pert PRO theta/theta diffractometer (EQ 0233) equipped with an X'Celerator RTMS detector and utilizing copper Kα radiation, operating at 45 kV and 40 mA. The instrument radius was 239.5 mm, the mask filter was 20 mm, the soller slit was 0.04 radians, and a nickel filter and sample spinning were used during data acquisition. The application and instrument control software used were X'Pert Data Collector®, version 2.0c and XPERT-PRO®, version 1.6, respectively. The samples were scanned from 5° to 40° 2θ in continuous mode, using a step size of 0.0167° 2θ.

[16] = Methyl cellulose optimization: Form I to Form II conversion in water pastes (PXRD); type: physicochemical
Description: In a small scintillation vial, 152.13 mg of micronized APD125 Form I, was spiked with sufficient deionized water to make a paste; the weight of the water added, 844.60 mg was recorded, and the resulting mixture was stirred using a spatula to obtain a paste. The resulting sample, post-collection of an initial PXRD pattern, was capped, wrapped in tinfoil and stored at 40° C. until the next day, when a second PXRD pattern was obtained.
Using another small scintillation vial, 2.1183 g of micronized APD125 Form I, was mixed with 3.3619 g of a 0.5% w/v methyl cellulose to obtain a paste, which was immediately sampled for PXRD analysis to verify starting APD125 solid-state form, post-methyl cellulose addition. The remaining sample in the scintillation vial was split into two portions, placed in capped, parafilm-wrapped scintillation vials, which were then wrapped in tinfoil and stored at 40° C. and room temperature, respectively. […]
APD125 micronized Form I/PVP (1:8) blend, weighing 3.0081 g and containing 0.5% w/w methyl cellulose, was mixed with 3.71277 g of water to form a paste. After sampling the paste for an initial PXRD pattern, the remaining paste was split into two portions, placed in capped, parafilm-wrapped scintillation vials, which were then wrapped in tinfoil and stored at 40° C. and room temperature, respectively. PXRD patterns were collected at initial (t=0), 1-day, 7-day and 21-day time points.
For each blend, materials were dispensed (minus magnesium stearate) into a glass vial and blended for about 5 minutes. Magnesium stearate was added and the mixture was blended an additional 2 minutes. The final blend was compacted into standard round concave tablets ( 5/16″ diameter) with a total tablet weight of 200 mg and hardness of 10 kp using a Carver press. For each batch of tablets, several were crushed using a mortar and pestle to obtain a fine powder, from which a small sample was taken for PXRD analysis to confirm the initial APD125 polymorphic form. The remaining powder was weighed into a Qorpak® bottle, and ca. 50% w/w deionized water was added. The resulting mixture was stirred using a micro-spatula to wet the powder and form a paste. A Teflon® lid was screwed on tightly, and the prepared samples were stored in a 40° C. oven.
as §1, with “respectively. The API-based paste samples were” for “respectively. The samples were”, “of 0.0167° 2θ and a counting time of 40.005 seconds. The tablet granulation samples were scanned from 2° to 15° 2θ in continuous mode, using a step size of 0.0167° 2θ and a counting time of 1063.625 s.” for “of 0.0167° 2θ.”

T1 sequence (P28223 whole entry): as above

O=C(c1ccc(F)cc1)C1CCN(CCn2c(=O)[nH]c3ccccc3c2=O)CC1 [ketanserin]
activity at 5-HT2A [1]: inverse agonist activity
IOP [2]: significantly lower IOP
JC virus infection of human glial cells [3]: inhibited
protection during heatstroke [4]: protect against circulatory shocks, intracranial hypertension and cerebral ischemia during heatstroke
blood pressure [5]: stabilize blood pressure

COc1ccc(NC(=O)Nc2ccc(F)cc2F)cc1-c1c(Br)cnn1C [APD125, 1-[3-(4-bromo-2-methyl-2H-pyrazol-3-yl)-4-methoxy-phenyl]-3-(2,4-difluoro-phenyl)-urea]
solubility ([6]; aqueous buffer, phosphate buffer (about pH 7)): ≤ 10 µg/mL
solubility ([6]; deionized water, water): ≤ 10 µg/mL
solubility ([6]; saline (about 0.9% NaCl solution), saline or isotonic): ≤ 10 µg/mL
solubility ([6]; simulated gastric fluid, 0.01 N HCl (about pH 2)): ≤ 10 µg/mL
stability in solution [7]: somewhat labile
activity at the 5-HT2A serotonin receptor [8]: potent and selective 5-HT2A serotonin receptor inverse agonist
dose of maximal effects on waking EEG [9]: 40 to 80 mg
effects on waking EEG [9]: vigilance-lowering effects
time of peak effects after dosing ([9]; waking EEG): 2 to 4 h
REM sleep ([10]; human, in vivo): at the expense of REM sleep
microarousals, number of sleep stage shifts and number of awakenings after sleep onset ([10]; human, in vivo): decreased
sleep onset latency ([10]; human, in vivo): not decreased
slow wave sleep and associated parameters ([10]; primarily during the early part of sleep): increased slow wave sleep and associated parameters in a dose-dependent manner
measurements of sleep maintenance ([11]; compared to placebo): statistically significant improvements
next day cognitive effects ([11]; in vivo): without any limiting next day cognitive effects

COc1cccc(CCc2ccccc2OCC(CN(C)C)OC(=O)CCC(=O)O)c1 (stereo not shown) [sarpogrelate]
IOP [2]: significantly lower IOP
urinary albumin excretion level [12]: significantly reduced
thermal induced pain ([13]; intraperitoneal administration): significant analgesic effect
inflammatory pain ([13]; intrathecal or intraperitoneal administration): significant analgesic effect
lower back pain, leg pain and numbness associated with sciatica [14]: effective treatment

COc1ccc(NC(=O)Nc2ccc(F)cc2F)cc1-c1c(Br)cnn1C [APD125 Form I, 1-[3-(4-bromo-2-methyl-2H-pyrazol-3-yl)-4-methoxy-phenyl]-3-(2,4-difluoro-phenyl)-urea]
PXRD pattern after compression ([15]; compressed at 2 kp, 5 kp and 10 kp): all substantially comprise Form I; also recorded: consistent with APD125 Form I
PXRD pattern after grinding ([15]; mortar and pestle for 1 minute, 5 minutes and 10 minutes, listed as micronized APD125 Form I): all substantially comprise Form I; also recorded: No significant changes in the PXRD patterns were observed
polymorphic form by PXRD ([16]; aqueous 0.5% w/w methyl cellulose at 40° C. after 10 days (FIG. 8, text)): no evidence of conversion to Form II
polymorphic form by PXRD ([16]; aqueous 0.5% w/w methyl cellulose, room temperature and 40° C. after 16 days (FIG. 8 legend)): substantially converted to Form II
polymorphic form by PXRD ([16]; paste in water alone at 40° C.): converted to Form II within 24 hours
polymorphic form by PXRD ([16]; paste in water alone at room temperature and 40° C. after 24 h (FIG. 9 legend)): substantially converted to Form II
polymorphic form by PXRD ([16]; suspended in aqueous 0.5% w/w methyl cellulose, 21 days at room temperature): did not convert to Form II

Cc1nc2sccn2c(=O)c1CCN1CCC(=C(c2ccc(F)cc2)c2ccc(F)cc2)CC1 [ritanserin]
activity at 5-HT2A [1]: inverse agonist activity
JC virus infection of human glial cells [3]: inhibited
